Data reported in ChEMBL document CHEMBL5726780, “Fused tricyclic compounds as Raf kinase inhibitors” (2018).
pIC50: −log10 of the molar value.

Assay: Time-Resolved Fluorescence Energy Transfer Assay: Compounds disclosed herein were tested against B-Raf (V600E) (PV3849, from Invitrogen) or C-Raf (Y340D/Y341D) (PV3805, from Invitrogen) in a time-resolved fluorescence energy transfer assay. The assay was carried out in reactions (10 μL) containing 0.0625 nM B-Raf or 0.5 nM C-Raf, 25 mM Tris pH7.4, 10 mM MgCl2, 0.5 mM EGTA, 0.5 mM […], 5 mM beta-glycerophosphate, 0.01% Triton X-100, 2.5 mM DTT, 0.1% BSA, 0.1 mM ATP, 13.7 nM GST-tagged MEK1 (Full-length protein with K97R mutation, recombinant protein purified from bacterial expression system) and 0-5 μM compounds disclosed herein (final concentration of 1% DMSO). The enzyme was incubated with the compounds at room temperature for 60 minutes and the reactions were initiated by the addition of ATP and GST-MEK1. After incubating at room temperature for 60 minutes, an equal volume of stop buffer containing 25 mM Tris pH7.4, 400 mM KF, 50 mM EDTA, 0.01% BSA, 0.01% Triton X-100, 1 test of Eu3+ Cryptate-conjugated rabbit polyclonal antibody anti-Phospho MEK1/2 (Ser217/221) and 1 test of d2-conjugated mouse monoclonal antibody anti-glutathione S-transferase was added to stop the reactions. Plates were sealed and incubated at room temperature for 2 hours, and then the TR-FRET signals were read on BMG PHERAstar FS instrument.

Structure (SMILES) | pIC50
O=C1CCc2c(Oc3ccc4c(c3)C3C(O4)C3c3nc4ccc(Br)cc4[nH]3)ccnc2N1 (centres undefined) | 7.09
O=C1CCc2c(Oc3ccc4c(c3)C3C(C4)C3C(=O)Nc3ccccc3S)ccnc2N1 (centres undefined) | 8.26
CNC(=O)Nc1cc(Oc2ccc3c(c2)C2C(O3)C2c2nc3ccc(C(F)(F)F)cc3[nH]2)ccn1 (centres undefined) | 8.19
O=C1CCc2c(Oc3ccc4c(c3)C3C(O4)C3C(=O)OCC(=O)c3ccccc3)ccnc2N1 (centres undefined) | > 9.60
